Patent publication US11866430B2, “Naphthyridinone compounds useful as T cell activators” (priority 2018, dated 2024)
Like-named read-outs stand apart in the source and are kept apart here.

Legend:
Human venous whole blood = test: Human Whole Blood IFN-γ Assay; format: cell-based
Experimental: Human venous whole blood (22.5 μL per well), obtained from healthy donors, was pre-treated with compounds for one hour at 37° C. in a humidified 95% air/5% CO2 incubator. The blood was stimulated with 2.5 μL anti-human CD3 and anti-CD28 mAb at a final concentration of 1 μg/mL each for 24 hours at 37° C. IFN-γ in the supernatants was measured using AlphaLISA kit (Cat #AL217).

[1] = tested on: OT-1 antigen-specific CD8+ T cells with MC38 tumor cells; test: Murine Cytotoxic T Lymphocyte Assay (IFN-γ); format: cell-based, mouse
human DGKζ = human DGKζ (Homo sapiens (Human), UniProt Q13574); test: DGKζ LIPGLO assay (extruded liposome substrate); format: biochemical
Sequence of human DGKζ (Q13574 other isoform, or with tags, fused parts or gaps): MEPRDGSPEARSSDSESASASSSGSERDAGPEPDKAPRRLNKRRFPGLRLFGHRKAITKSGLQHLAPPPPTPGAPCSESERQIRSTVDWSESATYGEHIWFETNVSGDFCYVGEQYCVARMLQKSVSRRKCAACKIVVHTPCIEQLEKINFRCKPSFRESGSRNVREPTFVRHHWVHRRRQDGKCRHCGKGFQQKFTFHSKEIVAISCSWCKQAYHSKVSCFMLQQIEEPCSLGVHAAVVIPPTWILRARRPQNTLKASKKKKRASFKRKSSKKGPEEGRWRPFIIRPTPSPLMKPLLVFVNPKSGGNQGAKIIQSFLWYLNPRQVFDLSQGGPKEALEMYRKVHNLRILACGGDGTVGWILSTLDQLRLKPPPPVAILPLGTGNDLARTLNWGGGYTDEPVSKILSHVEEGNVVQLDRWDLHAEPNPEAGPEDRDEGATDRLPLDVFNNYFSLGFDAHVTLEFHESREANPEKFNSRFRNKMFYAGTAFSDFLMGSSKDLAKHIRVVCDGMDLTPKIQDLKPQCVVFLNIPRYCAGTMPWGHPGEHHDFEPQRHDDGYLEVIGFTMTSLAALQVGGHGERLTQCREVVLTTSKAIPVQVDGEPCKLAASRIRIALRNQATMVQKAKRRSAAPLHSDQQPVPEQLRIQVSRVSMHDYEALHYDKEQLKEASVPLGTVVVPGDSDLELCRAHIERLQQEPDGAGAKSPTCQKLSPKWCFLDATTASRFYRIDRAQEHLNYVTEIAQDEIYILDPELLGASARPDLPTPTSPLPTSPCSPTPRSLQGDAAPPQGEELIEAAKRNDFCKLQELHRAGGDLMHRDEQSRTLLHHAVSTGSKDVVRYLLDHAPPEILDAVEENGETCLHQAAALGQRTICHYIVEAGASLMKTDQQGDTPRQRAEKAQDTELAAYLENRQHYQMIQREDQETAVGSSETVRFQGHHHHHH
Outline: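 Recombinant DGKζ (Sf9-expressed, Ni/SEC/SP-purified) preincubated 10 min with extruded 100 nm PC/DAG/PS liposomes in 50 mM MOPS pH 7.5, 100 mM NaCl, 10 mM MgCl2, 1 μM CaCl2, 1 mM DTT. Started with 300 uM ATP solution (stock, pre-addition); 1 hr reaction. ADP-Glo luminescence; IC50 from 11 concentrations.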

[2] = Homo sapiens, human whole blood, anti-CD3 plus anti-CD28 as baseline, 3 μM Example 40 co-stimulation as 100% activation, read-out: INF-γ Whole Blood Normalized Agonist EC50
[3] = Mus musculus, MC-38, read-out: msCTL INF-γ IC50, murine CTL IFN-γ (table title reads INF-γ Whole Blood Normalized Agonist EC50)
[4] = DGKζ LIPGLO IC50, extruded liposome substrate
[5] = human whole blood, anti-CD3 plus anti-CD28 as baseline, 3 μM Example 40 co-stimulation as 100% activation, read-out: INF-γ Whole Blood Normalized Agonist EC50
[6] = read-out: msCTL INF-γ IC50, murine CTL IFN-γ (table title reads INF-γ Whole Blood Normalized Agonist EC50)
[7] = extruded liposome substrate, read-out: DGKζ LIPGLO IC50

Row | SMILES | EC50 (Human venous whole blood; [2]) [µM] | EC50 (Human venous whole blood; Homo sapiens, read-out: INF-γ Whole Blood Agonist EC50) [µM] | IC50 [1, 3] [µM] | IC50 (human DGKζ; [4]) [µM] | EC50 (Human venous whole blood; [5]) [µM] | IC50 [1, 6] [µM] | IC50 (human DGKζ; [7]) [µM]
1 | COc1cc(F)ccc1C(c1ccc(F)cc1)N1CCN(c2c([N+](=O)[O-])c(=O)n(C)c3ccc(C#N)nc23)CC1 (single isomer, unassigned) [Example 124, 8-(4-((4-fluoro-2-methoxyphenyl)(4-fluorophenyl)methyl)piperazin-1-yl)-5-methyl-7-nitro-6-oxo-5,6-dihydro-1,5-naphthyridine-2-carbonitrile] | 0.1 | 0.14 | 0.04 | 0.16 |  |  | 
2 | C#CCn1c(=O)c([N+](=O)[O-])c(N2CCN(C(C)c3ccc(F)cc3)CC2)c2nc(C#N)ccc21 (single isomer, unassigned) [Example 136, 8-(4-(1-(4-fluorophenyl)ethyl)piperazin-1-yl)-7-nitro-6-oxo-5-(prop-2-yn-1-yl)-5,6-dihydro-1,5-naphthyridine-2-carbonitrile] |  |  |  | 0.21 | 1.16 | 0.09 | 
3 | C#CCn1c(=O)c([N+](=O)[O-])c(N2CCN(C(C)c3ccc(F)cc3)CC2)c2nc(C#N)ccc21 (single isomer, unassigned) [Example 137, 8-(4-(1-(4-fluorophenyl)ethyl)piperazin-1-yl)-7-nitro-6-oxo-5-(prop-2-yn-1-yl)-5,6-dihydro-1,5-naphthyridine-2-carbonitrile] |  |  |  | 0.85 | 5 | 0.23 | 
4 | COc1cc(F)ccc1C(c1ccc(F)cc1)N1CCN(c2c(C#N)c(=O)n(C)c3ccc(C#N)nc23)CC1 (single isomer, unassigned) [Example 406, 8-{4-[(4-fluoro-2-methoxyphenyl)(4-fluorophenyl)methyl]piperazin-1-yl}-5-methy-6-oxo-5,6-dihydro-L5-naphthyridine-2,7-dicarbonitrile] |  |  |  |  | 2.19 | 0.16 | 3.1
5 | COc1cc(F)ccc1C(c1ccc(F)cc1)N1CCN(c2c(C#N)c(=O)n(C)c3ccc(C#N)nc23)CC1 (single isomer, unassigned) [Example 407, 8-{4-[(4-fluoro-2-methoxyphenyl)(4-fluorophenyl)methyl]piperazin-1-yl}-5-methy-6-oxo-5,6-dihydro-L5-naphthyridine-2,7-dicarbonitrile] |  |  |  |  | 0.78 | 0.04 | 0.45
6 | Cc1ccc(CN2CCN(c3c(C#N)c(=O)n(C)c4ccc(Br)nc34)CC2)c(O)c1 [Example 372, 6-bromo-4-{4-[(2-hydroxy-4-methylphenyl)methyl]piperazin-1-yl}-1-methyl-2-oxo-1,2-dihydro-1,5-naphthyridine-3-carbonitrile] | 5 |  | 2.55 |  |  |  | 8.8
7 | Cc1ccc(CN2CCN(c3c(C#N)c(=O)n(C)c4ccc(Cl)nc34)CC2)cc1 [Example 386, 6-chloro-1-methyl-4-{4-[(4-methylphenyl)methyl]piperazin-1-yl}-2-oxo-1,2-dihydro-1,5-naphthyridine-3-carbonitrile] | 1.24 |  | 0.59 |  |  |  | 6.7
8 | Cc1cccc(CN2CCN(c3c(C#N)c(=O)n(C)c4ccc(Cl)nc34)CC2)c1O [Example 391, 6-chloro-4-{4-[(2-hydroxy-3-methylphenyl)methyl]piperazin-1-yl}-1-methyl-2-oxo-1,2-dihydro-1,5-naphthyridine-3-carbonitrile] | 3.5 |  | 0.73 |  |  |  | 2.1
9 | Cc1ccc(CN2CCN(c3c(C#N)c(=O)n(C)c4ccc(Cl)nc34)CC2)c(F)c1 [Example 423, 6-chloro-4-{4-[(2-fluoro-4-methylphenyl)methyl]piperazin-1-yl}-1-methyl-2-oxo-1,2-dihydro-1,5-naphthyridine-3-carbonitrile] | 10 |  | 0.7 |  |  |  | 33
10 | Cn1c(=O)c(C#N)c(N2CCN(C(C)(C)c3ccc(F)cc3)CC2)c2nc(Cl)ccc21 [Example 425, 6-chloro-4-{4-[2-(4-fluorophenyl)propan-2-yl]piperazin-1-yl}-1-methyl-2-oxo-1,2-dihydro-1,5-naphthyridine-3-carbonitrile] | 10 |  | 2.98 |  |  |  | > 240
